In ChEMBL document CHEMBL1201862, “PubChem BioAssay data set” (2004):
Calls of active or inactive are those of the source.

Columns and labels:
[1] = target: T1, Melanin-concentrating hormone receptor 1 (Homo sapiens, UniProt Q99705); assay: Late-stage fluorescence-based counterscreen for antagonists of the G-protein coupled receptor 7 (GPR7): cell-based dose response assay to identify antagonists of the melanin-concentrating hormone receptor 1 (MCHR1). [Related pubchem assays (depositor defined):AID1861, AID1880, AID1952, AID2148, AID2251, AID2257, AID485339]; type: functional
[2] = target: Neuropeptides B/W receptor type 1 (Homo sapiens, UniProt P48145); assay: human NPBW1 receptor blockade, IC50 – cell-based, fluorescence, dose response, late-stage follow-up (AID 463251); type: functional
X-box-binding protein 1 = X-box-binding protein 1 (Homo sapiens, UniProt P17861); type: functional, Cricetulus griseus;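 note: confirmatory dose-response counter-screen serving a CHOP assay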
[3] = target: T1, Melanin-concentrating hormone receptor 1; assay: Fluorescence-based counterscreen for antagonists of the G-protein coupled receptor 7 (GPR7): cell-based high throughput dose response assay to identify antagonists of the melanin-concentrating hormone receptor 1 (MCHR1).; type: functional
[4] = reduction of Shn3 3'UTR-driven luciferase in osteoblasts – cell-based, Clone20 osteoblasts, firefly luciferase, cherry-picked, dose response (AID 624132); type: functional;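 note: firefly luciferase luminescence from reporter carrying the Shn3 3'UTR in osteoblasts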
[5] = target: Neurotensin receptor type 1 (Homo sapiens, UniProt P30989); type: functional;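 note: Image-based confirmatory dose-response assay measuring agonist activity at NTR1; NTR1-expressing U2OS osteosarcoma cells imaged for beta-arrestin GFP spot formation; agonist potency where compounds increase beta-arrestin recruitment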
Cytochrome P450 3A4 = Cytochrome P450 3A4 (Homo sapiens, UniProt P08684);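 note: CYP3A4 tested as one member of a cytochrome P450 panel screen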
[6] = target: T2, Heat shock factor protein 1 (Mus musculus, UniProt P38532); assay: decrease of HSF1-responsive luciferase luminescence – cell-based, NIH3T3, dose retest, confirmation (AID 2382); type: functional;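 note: NIH3T3 fibroblasts with HSF1-driven luciferase reporter stressed by proteasome inhibitor MG132; luminescence from HSF1-driven luciferase expression after 8 hours of MG132 stress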
T2 sequence (P38532 whole entry): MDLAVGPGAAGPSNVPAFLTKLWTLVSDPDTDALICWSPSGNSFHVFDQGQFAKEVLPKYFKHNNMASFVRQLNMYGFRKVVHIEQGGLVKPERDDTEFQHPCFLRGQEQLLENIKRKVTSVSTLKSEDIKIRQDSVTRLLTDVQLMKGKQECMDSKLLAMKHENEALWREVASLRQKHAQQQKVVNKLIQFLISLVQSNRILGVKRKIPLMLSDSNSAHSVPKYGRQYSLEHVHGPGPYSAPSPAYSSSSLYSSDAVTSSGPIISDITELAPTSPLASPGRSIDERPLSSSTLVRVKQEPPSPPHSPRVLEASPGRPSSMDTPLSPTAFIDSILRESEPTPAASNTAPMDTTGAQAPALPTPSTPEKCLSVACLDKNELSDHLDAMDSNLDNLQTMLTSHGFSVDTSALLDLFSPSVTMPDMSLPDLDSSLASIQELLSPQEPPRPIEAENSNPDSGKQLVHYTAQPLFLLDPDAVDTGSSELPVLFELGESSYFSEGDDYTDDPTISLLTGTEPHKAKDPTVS

Protein Rev = Protein Rev (Human immunodeficiency virus type 1 group M subtype B (isolate WMJ22)(HIV-1), UniProt P05866); assay: inhibitors of Rev protein–RRE RNA complex – biochemical, protein-RNA interaction, dose response (AID 842); parameters: species or system Human immunodeficiency virus 1
Cytochrome P450 1A2 = target: T3, Cytochrome P450 1A2 (Homo sapiens, UniProt P05177);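 note: PubChem cytochrome P450 panel assay, CYP1A2 panel member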
T3 sequence (P05177 whole entry): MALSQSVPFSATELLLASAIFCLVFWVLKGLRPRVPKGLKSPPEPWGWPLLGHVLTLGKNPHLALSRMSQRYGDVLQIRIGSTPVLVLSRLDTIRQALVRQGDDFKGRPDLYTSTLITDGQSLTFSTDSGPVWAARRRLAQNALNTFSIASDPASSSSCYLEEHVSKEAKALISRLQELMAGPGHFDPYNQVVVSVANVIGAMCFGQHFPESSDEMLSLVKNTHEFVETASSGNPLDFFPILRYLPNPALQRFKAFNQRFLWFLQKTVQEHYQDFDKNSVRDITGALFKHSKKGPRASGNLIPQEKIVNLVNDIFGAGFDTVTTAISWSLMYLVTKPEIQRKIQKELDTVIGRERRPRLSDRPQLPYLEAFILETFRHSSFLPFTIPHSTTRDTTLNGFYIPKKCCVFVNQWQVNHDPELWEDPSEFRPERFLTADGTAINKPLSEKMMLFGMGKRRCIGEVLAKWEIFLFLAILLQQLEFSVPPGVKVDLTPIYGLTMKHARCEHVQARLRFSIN

T1 sequence (Q99705 whole entry): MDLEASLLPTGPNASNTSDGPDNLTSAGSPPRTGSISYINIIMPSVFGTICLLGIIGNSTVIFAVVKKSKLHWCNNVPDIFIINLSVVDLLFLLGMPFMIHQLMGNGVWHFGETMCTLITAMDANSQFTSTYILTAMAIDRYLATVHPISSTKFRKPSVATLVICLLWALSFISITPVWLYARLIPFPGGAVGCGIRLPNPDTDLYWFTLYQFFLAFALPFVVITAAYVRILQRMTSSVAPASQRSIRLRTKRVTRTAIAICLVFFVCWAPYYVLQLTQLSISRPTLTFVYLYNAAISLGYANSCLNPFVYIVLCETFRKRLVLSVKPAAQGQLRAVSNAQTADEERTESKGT
Sequence of Neurotensin receptor type 1 (P30989 whole entry): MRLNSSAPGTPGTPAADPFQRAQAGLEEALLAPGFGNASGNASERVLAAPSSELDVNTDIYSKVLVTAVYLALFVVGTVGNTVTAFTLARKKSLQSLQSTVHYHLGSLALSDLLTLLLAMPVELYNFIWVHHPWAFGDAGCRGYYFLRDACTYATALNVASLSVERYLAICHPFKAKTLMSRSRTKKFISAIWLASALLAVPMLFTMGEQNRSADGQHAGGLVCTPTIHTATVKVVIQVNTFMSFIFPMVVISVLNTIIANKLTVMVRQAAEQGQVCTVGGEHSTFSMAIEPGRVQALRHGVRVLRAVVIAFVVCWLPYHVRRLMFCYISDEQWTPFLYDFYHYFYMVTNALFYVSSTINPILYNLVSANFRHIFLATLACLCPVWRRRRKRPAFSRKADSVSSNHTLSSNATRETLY
Sequence of Cytochrome P450 3A4 (P08684 whole entry): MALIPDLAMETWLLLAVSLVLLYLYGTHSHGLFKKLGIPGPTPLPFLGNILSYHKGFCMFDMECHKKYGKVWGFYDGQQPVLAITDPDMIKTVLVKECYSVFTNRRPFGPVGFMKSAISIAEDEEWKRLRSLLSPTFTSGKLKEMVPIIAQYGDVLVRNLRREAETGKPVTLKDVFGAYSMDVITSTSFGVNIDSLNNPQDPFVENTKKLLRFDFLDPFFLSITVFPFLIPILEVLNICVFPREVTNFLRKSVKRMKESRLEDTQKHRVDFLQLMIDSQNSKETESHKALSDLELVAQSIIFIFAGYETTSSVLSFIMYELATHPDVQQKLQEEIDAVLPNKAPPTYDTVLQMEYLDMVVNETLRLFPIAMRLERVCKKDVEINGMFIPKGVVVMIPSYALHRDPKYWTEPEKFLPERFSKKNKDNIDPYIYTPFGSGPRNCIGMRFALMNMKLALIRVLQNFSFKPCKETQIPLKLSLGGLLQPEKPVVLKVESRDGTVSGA
Sequence of X-box-binding protein 1 (P17861 whole entry): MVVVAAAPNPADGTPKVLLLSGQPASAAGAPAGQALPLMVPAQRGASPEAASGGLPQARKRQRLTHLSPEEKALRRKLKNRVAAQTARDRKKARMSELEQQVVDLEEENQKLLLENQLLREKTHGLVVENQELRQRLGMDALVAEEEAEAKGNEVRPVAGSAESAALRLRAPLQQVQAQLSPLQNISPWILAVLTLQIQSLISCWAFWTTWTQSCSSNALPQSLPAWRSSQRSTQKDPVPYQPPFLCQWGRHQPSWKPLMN
Sequence of Protein Rev (P05866 whole entry): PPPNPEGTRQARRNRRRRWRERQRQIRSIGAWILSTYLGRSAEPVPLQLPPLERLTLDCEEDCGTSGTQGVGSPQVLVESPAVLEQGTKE
Sequence of Neuropeptides B/W receptor type 1 (P48145 whole entry): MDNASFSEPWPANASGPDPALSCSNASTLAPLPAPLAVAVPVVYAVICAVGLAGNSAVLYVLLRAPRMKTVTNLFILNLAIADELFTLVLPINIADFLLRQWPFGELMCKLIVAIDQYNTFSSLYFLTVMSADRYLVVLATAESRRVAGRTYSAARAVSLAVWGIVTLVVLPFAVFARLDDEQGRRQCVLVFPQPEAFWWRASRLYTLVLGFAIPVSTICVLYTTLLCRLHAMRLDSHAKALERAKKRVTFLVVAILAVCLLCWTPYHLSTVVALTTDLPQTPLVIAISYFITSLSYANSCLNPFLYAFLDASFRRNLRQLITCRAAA

COc1cc(OC)cc(Oc2c(Cl)cnn(-c3ccc(C(C)C)cc3)c2=O)c1
IC50 [1]: 10.5 µM (inactive)
IC50 [2]: 8.2 µM (active)

Cc1sc2ncnc(N3CCCCC3C)c2c1C (stereo not given)
Absolute IC50 (XBP1) (X-box-binding protein 1): 10 µM

COC(=O)[C@@H](Cc1c[nH]c2ccccc12)NC(=O)CCC(=O)c1ccc(Br)cc1
IC50 [3]: 24.5 µM (not active)

CCOc1cc(/C=C2\C(=O)ON=C2C)ccc1OCc1ccccc1
AC50 [4]: 10.4 µM (active)
EC50 [5]: 13.9 µM (active)

CC[n+]1c(/C=C/Nc2ccccc2)oc2ccccc21
AC50 (Cytochrome P450 3A4): 25.1 µM (inconclusive)
EC50 [6]: > 195 µM (not active)
IC50 (Protein Rev): 5.66 µM (active)
AC50 (Cytochrome P450 1A2): 15.8 µM (inconclusive)
